Experimental data taken from US12692269B2, “Therapeutic compounds” (Genentech, Inc., priority 2019, dated 2026).

Assays:
Format in all cases: binding
TEAD2 YAP50-100 = TEAD2 YAP50-100 (Homo sapiens, UniProt Q15562); test: TEAD2-YAP HTRF (TR-FRET) protein-protein interaction assay; conditions: TEAD2, YAP peptide 50-100, HTRF; for EC50: read-out: TEAD2 YAP50-100 HTRF combined: EC50
Method in brief: (§1)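 Compounds were first allowed 30 min to bind Eu-antibody-tagged His-TEAD (YAP-binding domain, aa 217-447). Biotinylated YAP 50-100 or TAZ 13-57 peptide complexed with streptavidin-XL665 was then added for 60 min at room temperature, and loss of TR-FRET signal gave IC50 or EC50 values.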

TEAD1 YAP50-100 = TEAD1 YAP50-100 (Homo sapiens, UniProt P28347); test: TEAD1-YAP HTRF (TR-FRET) protein-protein interaction assay; conditions: TEAD1, YAP peptide 50-100, HTRF; for EC50: read-out: TEAD1 YAP50-100 HTRF combined: EC50
Method in brief: as §1

[1] = molecular target: TEAD3 TAZ (amino acids 13-57) (Homo sapiens, UniProt Q99594); test: TEAD3-TAZ HTRF (TR-FRET) protein-protein interaction assay; conditions: for TEAD3 TAZ HTRF combined: Max % Inhibition: TEAD3, TAZ peptide; for EC50: TEAD3-TAZ HTRF, TR-FRET 665 nm/615 nm, read-out: TEAD3 TAZ HTRF combined: EC50
Method in brief: as §1

TEAD4 YAP50-100 = TEAD4 YAP50-100 (Homo sapiens, UniProt Q15561); test: TEAD4-YAP HTRF (TR-FRET) protein-protein interaction assay; conditions: TEAD4, YAP peptide 50-100, HTRF; for EC50: read-out: TEAD4 YAP50-100 HTRF combined: EC50
Method in brief: as §1

[2] = molecular target: TEAD4 TAZ (amino acids 13-57) (Homo sapiens, UniProt Q15561); test: TEAD4-TAZ HTRF (TR-FRET) protein-protein interaction assay; conditions: for TEAD4 TAZ HTRF combined: Max % Inhibition: TEAD4, TAZ peptide; for EC50: TEAD4-TAZ HTRF, TR-FRET 665 nm/615 nm, read-out: TEAD4 TAZ HTRF combined: EC50
Method in brief: as §1

TEAD3 YAP50-100 = TEAD3 YAP50-100 (Homo sapiens, UniProt Q99594); test: TEAD3-YAP HTRF (TR-FRET) protein-protein interaction assay; conditions: TEAD3, YAP peptide 50-100, HTRF; for EC50: read-out: TEAD3 YAP50-100 HTRF combined: EC50
Method in brief: as §1

[3] = molecular target: TEAD1 TAZ (amino acids 13-57) (Homo sapiens, UniProt P28347); test: TEAD1-TAZ HTRF (TR-FRET) protein-protein interaction assay; conditions: for TEAD1 TAZ HTRF combined: Max % Inhibition: TEAD1, TAZ peptide; for EC50: TEAD1-TAZ HTRF, TR-FRET 665 nm/615 nm, read-out: TEAD1 TAZ HTRF combined: EC50
Method in brief: as §1

[4] = molecular target: TEAD2 TAZ (amino acids 13-57) (Homo sapiens, UniProt Q15562); test: TEAD2-TAZ HTRF (TR-FRET) protein-protein interaction assay; conditions: for TEAD2 TAZ HTRF combined: Max % Inhibition: TEAD2, TAZ peptide; for EC50: TEAD2-TAZ HTRF, TR-FRET 665 nm/615 nm, read-out: TEAD2 TAZ HTRF combined: EC50
Method in brief: as §1

Sequence of TEAD4 TAZ (amino acids 13-57) (Q15561 217-434 limits assumed): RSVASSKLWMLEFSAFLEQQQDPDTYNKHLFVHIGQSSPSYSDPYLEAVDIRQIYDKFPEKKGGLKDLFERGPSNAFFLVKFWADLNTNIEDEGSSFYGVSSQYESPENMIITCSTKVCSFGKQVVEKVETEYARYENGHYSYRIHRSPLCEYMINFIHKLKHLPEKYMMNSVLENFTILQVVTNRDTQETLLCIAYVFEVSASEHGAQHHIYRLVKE
Sequence of TEAD4 YAP50-100 (Q15561 217-434 limits assumed): as above
Sequence of TEAD3 TAZ (amino acids 13-57) (Q99594 173-435 limits assumed): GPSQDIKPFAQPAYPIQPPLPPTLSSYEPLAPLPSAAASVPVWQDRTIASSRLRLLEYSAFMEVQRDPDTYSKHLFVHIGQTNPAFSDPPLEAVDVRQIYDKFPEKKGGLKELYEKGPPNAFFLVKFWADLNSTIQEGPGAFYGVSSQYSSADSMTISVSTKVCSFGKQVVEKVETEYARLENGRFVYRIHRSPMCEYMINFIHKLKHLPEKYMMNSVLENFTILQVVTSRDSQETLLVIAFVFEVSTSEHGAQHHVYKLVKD
Sequence of TEAD3 YAP50-100 (Q99594 173-435 limits assumed): as above
Sequence of TEAD1 TAZ (amino acids 13-57) (P28347 167-426 limits assumed): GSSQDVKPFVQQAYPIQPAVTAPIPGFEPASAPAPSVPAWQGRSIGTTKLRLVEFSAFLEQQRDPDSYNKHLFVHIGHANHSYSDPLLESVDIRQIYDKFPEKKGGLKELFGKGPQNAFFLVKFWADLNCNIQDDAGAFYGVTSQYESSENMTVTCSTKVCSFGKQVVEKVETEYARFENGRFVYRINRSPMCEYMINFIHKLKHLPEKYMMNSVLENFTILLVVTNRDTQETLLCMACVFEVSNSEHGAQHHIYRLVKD
Sequence of TEAD1 YAP50-100 (P28347 167-426 limits assumed): as above
Sequence of TEAD2 TAZ (amino acids 13-57) (Q15562 217-447): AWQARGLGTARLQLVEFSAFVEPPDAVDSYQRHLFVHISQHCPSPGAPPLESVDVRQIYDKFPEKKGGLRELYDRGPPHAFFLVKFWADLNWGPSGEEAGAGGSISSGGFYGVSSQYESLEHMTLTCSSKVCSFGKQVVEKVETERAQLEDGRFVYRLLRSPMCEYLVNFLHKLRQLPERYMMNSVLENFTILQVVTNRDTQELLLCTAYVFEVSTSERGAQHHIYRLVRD
Sequence of TEAD2 YAP50-100 (Q15562 217-447): as above

| TEAD2 YAP50-100 HTRF combined: Max % Inhibition (TEAD2 YAP50-100) [%] | EC50 (TEAD2 YAP50-100) [nM] | TEAD1 YAP50-100 HTRF combined: Max % Inhibition (TEAD1 YAP50-100) [%] | EC50 (TEAD1 YAP50-100) [nM] | TEAD3 TAZ HTRF combined: Max % Inhibition [1] [%] | EC50 [1] [nM] | TEAD4 YAP50-100 HTRF combined: Max % Inhibition (TEAD4 YAP50-100) [%] | EC50 (TEAD4 YAP50-100) [nM] | TEAD4 TAZ HTRF combined: Max % Inhibition [2] [%] | EC50 [2] [nM] | TEAD3 YAP50-100 HTRF combined: Max % Inhibition (TEAD3 YAP50-100) [%] | EC50 (TEAD3 YAP50-100) [nM] | TEAD1 TAZ HTRF combined: Max % Inhibition [3] [%] | EC50 [3] [nM] | TEAD2 TAZ HTRF combined: Max % Inhibition [4] [%] | EC50 [4] [nM] | SMILES |
| --- | --- | --- | --- | --- | --- | --- | --- | --- | --- | --- | --- | --- | --- | --- | --- | --- |
| 26.0 | 60 | 69.0 | 150 | 70.0 | 690 | 51.0 | 5500 | 51.5 | 4900 | 74.0 | 530 | 53.5 | 180 | 35.0 | 50 | Cc1nccnc1-c1nn2c(=O)cc(-c3ccc(C4CCCCC4)cc3)[nH]c2c1C(=O)N1C[C@@H](CF)[C@H]1C (single isomer, unassigned) [Isomer A, Example 41] |
| 52.0 | 40 | 64.0 | 60 | 64.0 | 1200 | 40.0 | 9350 | 42.0 | 9500 | 65.5 | 1050 | 52.0 | 70 | 56.5 | 40 | C[C@H]1[C@@H](CF)CN1C(=O)c1c(-c2cnccn2)nn2c(=O)cc(-c3ccc(CC4CCCC4)cc3)[nH]c12 (single isomer, unassigned) [Isomer A, Example 44, Cis-5-(4-(cyclopentylmethyl)phenyl)-3-(3-(fluoromethyl)-2-methylazetidine-1-carbonyl)-2-(pyrazin-2-yl)pyrazolo[1,5-a]pyrimidin-7(4H)-one] |
| 51.0 | 20 | 77.0 | 80 | 61.0 | 120 | 45.5 | 470 | 44.5 | 370 | 69.5 | 110 | 71.0 | 110 | 54.0 | 20 | N#Cc1nccnc1-c1nn2c(=O)cc(-c3ccc(C4CCCCC4)cc3)[nH]c2c1C(=O)N1CC(CF)C1 [Compound 8, 3-(5-(4-Cyclohexylphenyl)-3-(3-(fluoromethyl)azetidine-1-carbonyl)-7-oxo-4,7-dihydropyrazolo[1,5-a]pyimidin-2-yl)pyrazine-2-carbonitrile] |
| 61.6 | 10 | 69.0 | 30 | 53.9 | 60 | 42.0 | 40 | 34.9 | 30 | 63.3 | 60 | 60.6 | 40 | 60.9 | 10 | O=C(c1c(-c2cnccn2)nn2c(=O)cc(-c3ccc(C4CCCCC4)cc3)[nH]c12)N1CC(CF)C1 [Compound 17, 5-(4-Cyclohexylphenyl)-3-(3-(fluoromethyl)azetidine-1-carbonyl)-2-(pyrazin-2-yl)pyrazolo[1,5-a]pyrimidin-7(4H)-one] |
| 67.5 | 20 | 71.0 | 70 | 58.5 | 210 | 48.5 | 460 | 41.5 | 410 | 71.5 | 180 | 61.5 | 100 | 63.0 | 20 | CC1CCN1C(=O)c1nn2c(=O)cc(-c3ccc(C4CCCCC4)cc3)[nH]c2c1C(=O)N1CC(CF)C1 (single isomer, unassigned) [Enantiomer A, Example 33, 5-(4-Cyclohexylphenyl)-3-(3-(fluoromethyl)azetidine-1-carbonyl)-2-(2-methylazetidine-1-carbonyl)pyrazolo[1,5-a]pyrimidin-7(4H)-one] |
| 65.0 | 20 | 74.0 | 80 | 56.5 | 180 | 50.0 | 210 | 40.0 | 130 | 71.5 | 180 | 66.5 | 100 | 60.0 | 20 | COc1nccnc1-c1nn2c(=O)cc(-c3ccc(C4CCCCC4)cc3)[nH]c2c1C(=O)N1CC(CF)C1 [Compound 13, 5-(4-Cyclohexylphenyl)-3-(3-(fluoromethyl)azetidine-1-carbonyl)-2-(3-methoxypyrazin-2-yl)pyrazolo[1,5-a]pyrimidin-7(4H)-one] |
| 53.5 | 20 | 72.0 | 50 | 56.5 | 70 | 37.0 | 820 | 34.5 | 940 | 65.5 | 50 | 63.0 | 50 | 50.5 | 20 | Cc1nccnc1-c1nn2c(=O)cc(-c3ccc(C4CCCCC4)cc3)[nH]c2c1C(=O)N(C)C [Compound 20, 5-(4-Cyclohexylphenyl)-N,N-dimethyl-2-(3-methylpyrazin-2-yl)-7-oxo-4,7-dihydropyrazolo[1,5-a]pyrimidine-3-carboxamide] |
| 59.5 | 20 | 76.0 | 40 | 63.0 | 100 | 43.5 | 130 | 41.0 | 120 | 68.0 | 100 | 74.0 | 60 | 66.5 | 10 | Cc1cncc(-c2nn3c(=O)cc(-c4ccc(C5CCCCC5)cc4)[nH]c3c2C(=O)N2CC(CF)C2)n1 [Compound 28, 5-(4-Cyclohexylphenyl)-3-(3-(fluoromethyl)azetidine-1-carbonyl)-2-(6-methylpyrazin-2-yl)pyrazolo[1,5-a]pyrimidin-7(4H)-one] |
